Test results published in patent EP0044955B1, “Liquid herbicide mixtures” (BASF Aktiengesellschaft, priority 1980, dated 1982).
Like-named read-outs stand apart in the source and are kept apart here.

Assays:
Format in all cases: physicochemical
[1] = Water solubility of the solvents; conditions: for H2O-Löslichkeit des Lösungsmittels (%) Gew.-% Lösungs-mittel in Wasser: Tabelle 1 solvents; for Wasserlöslichkeit der Lösungsmittel (%): Säureamide of Tabelle 4
Description: (§1) Beispiele von Säureamiden sind in der Tabelle 4 zusammengefaßt. Bestimmt wurden die Löslichkeiten der Substanzen 1 (Chloridazon) und 2 (Biscarbamat) wie sie in Tabelle 1 aufgeführt sind, sowie die Wasserlöslichkeit der Lösungsmittel.

[2] = Active ingredient stability in solvents (0,002 molar, HPLC); conditions: for remaining at 5 min, 2000 µM: Abbauzeit 5 min; for remaining at 20 min, 2000 µM: Abbauzeit 20 min; for remaining at 1 h, 2000 µM: Abbauzeit 60 min; for remaining at 7 min, 2000 µM: Abbauzeit 7 min; for remaining at 0.5 h, 2000 µM: Abbauzeit 30 min
Description: In der Tabelle 2 wird die Wirkstoffstabilität der oben genannten Substanz 2 in verschiedenen Lösungsmitteln als Beispiel aufgeführt. […] Die Konzentration an Wirkstoff war bei diesen Untersuchungen 0,002 molar. Die Analyse wurde mit Hilfe der Hochdruckflüssigkeitschromatographie (HPLC) durchgeführt.

[3] = Solubility of Substanz 1 and Substanz 2 in solvents at room temperature
Description: as §1

[4] = Phenmedipham degradation in formulations at various temperatures
Description: Es wurde der Abbau des Phenmedipham bei verschiedenen Temperaturen verfolgt.

[5] = Stability of Phenmedipham in solvents, 24 h storage, HPLC; conditions: 24 Std., read-out: Restwirkstoff an Phenmedipham Wirkstoffgehalt
Description: In der folgenden Tabelle sind die Stabilitätsuntersuchungen von Phenmedipham bei verschiedenenen Temperaturen und konstanter Zeit zusammengefaßt. Es wurden 500 mg technischer Wirkstoff in 25 ml Lösungsmittel gelöst, die Lösungen bei der entsprechend gewählten Temperatur 24 Stunden gelagert und der Restwirkstoffgehalt analytisch mit Hilfe der HPLC-Methode bestimmt.

[6] = dimethylformamid (technisch), Dimethylformid (technisch), 50°C, read-out: Wirkstoffgehalt
[7] = dimethylformamid (technisch), Dimethylformid (technisch), 70°C, read-out: Wirkstoffgehalt
[8] = n-methylpyrrolidon, N-Methylpyrrolidon (rein 0,05% H2O), 50°C, read-out: Wirkstoffgehalt
[9] = n-methylpyrrolidone, N-Methylpyrrolidon (rein 0,05% H2O), 30°C, read-out: Wirkstoffgehalt

In the case of `O=C1CCCCC1` [Cyclohexanon, reference compound], the “H2O-Löslichkeit des Lösungsmittels (%) Gew.-% Lösungs-mittel in Wasser” value [1] is reported as 3-4%.
For `CCCC(=O)N(CCC)CCC` [compound 7], the “Wasserlöslichkeit der Lösungsmittel (%)” value [1] was 1,5%.
With `Nc1cnn(-c2ccccc2)c(=O)c1Cl` [Substanz 1, 1-Phenyl-4-amino-5-chlor-pyridazon-(6), reference compound] the Stabilität ([2]; in the solvents of Tabelle 2) was “keine Schwierigkeiten”.
In the case of `CCCCC(CC)C(=O)N(C)C` (centres unmarked) [compound 9], the “Wasserlöslichkeit der Lösungsmittel (%)” value [1] is reported as 1,5%.
In the case of `CC1=CC(=O)CC(C)(C)C1` [Isophoron, reference compound], the “H2O-Löslichkeit des Lösungsmittels (%) Gew.-% Lösungs-mittel in Wasser” value [1] is reported as 1,2%.
For `CCN(CC)C(=O)c1ccccc1` [compound 10], the “Wasserlöslichkeit der Lösungsmittel (%)” value [1] was 3,7%.
With `CCCN(CCC)C(=O)c1ccccc1` [compound 12] the “Wasserlöslichkeit der Lösungsmittel (%)” value [1] was 0,5%.
For `CCOC(=O)Nc1cccc(OC(=O)Nc2ccc(F)c(Cl)c2)c1` [Substanz 2, (3-Chlor-4-fluorphenyl)carbaminsäure-3(ethoxy-carbonyl)amino-phenylester], the “Löslichkeit in % (g Substanz in 100 g Lösung bei Raumtemperatur (RT 20°C))” value (shortened to “Löslichkeit in %”) ([3]; in Cyclohexanon) was 35,0%, the “Löslichkeit in %” value ([3]; in Dimethylformamid) was 47,2% and the “Löslichkeit in %” value ([3]; in Dimethylsulfoxid) was 55,3%. For the same compound, the “Löslichkeit in %” value ([3]; in Isophoron) was 33,7%, the “Löslichkeit in %” value ([3]; in N-Methylpyrrolidon) was 30,8% and the “Löslichkeit in (%)” value ([3]; in Säureamid Nr. 1, Rt) was 39,9%. For the same compound, the “Löslichkeit in (%)” value ([3]; in Säureamid Nr. 2, Rt) was 37,0%, the “Löslichkeit in (%)” value ([3]; in Säureamid Nr. 3, Rt) was 43,8% and the “Löslichkeit in (%)” value ([3]; in Säureamid Nr. 4, Rt) was 45,4%. For the same compound, the “Löslichkeit in (%)” value ([3]; in Säureamid Nr. 5, Rt) was 41,6%, the “Löslichkeit in (%)” value ([3]; in Säureamid Nr. 6, Rt) was 49,0% and the “Löslichkeit in (%)” value ([3]; in Säureamid Nr. 7, Rt) was 38,8%. For the same compound, the “Löslichkeit in (%)” value ([3]; in Säureamid Nr. 8, Rt) was 45,5%, the “Löslichkeit in (%)” value ([3]; in Säureamid Nr. 9, Rt) was 29,1% and the “Löslichkeit in (%)” value ([3]; in Säureamid Nr. 10, Rt) was 39,5%. The “Löslichkeit in (%)” value ([3]; in Säureamid Nr. 11, Rt) was 29,4%, the “Löslichkeit in (%)” value ([3]; in Säureamid Nr. 12, Rt) was 33,3% and the “Löslichkeit in (%)” value ([3]; in Säureamid Nr. 13, Rt) was 31,1%. For the same compound, the remaining at 5 min, 2000 µM [2, 6] was 99.5%, the remaining at 20 min, 2000 µM [2, 6] was 98.1% and the remaining at 1 h, 2000 µM [2, 6] was 95.5%. For the same compound, the remaining at 7 min, 2000 µM [2, 7] was 98.5%, the remaining at 0.5 h, 2000 µM [2, 7] was 87.2% and the remaining at 1.05 h, 2000 µM ([2]; dimethylformamid (technisch), Dimethylformid (technisch), 70°C, Abbauzeit 63 min, read-out: Wirkstoffgehalt) was 57.4%. For the same compound, the remaining at 7 min, 2000 µM ([2]; dimethylformamid (technisch), Dimethylformid (technisch), 80°C, read-out: Wirkstoffgehalt) was 85.4%, the remaining at 23 min, 2000 µM ([2]; dimethylformamid (technisch), Dimethylformid (technisch), 80°C, Abbauzeit 23 min, read-out: Wirkstoffgehalt) was 54.7% and the remaining at 37 min, 2000 µM ([2]; dimethylformamid (technisch), Dimethylformid (technisch), 80°C, Abbauzeit 37 min, read-out: Wirkstoffgehalt) was 32.9%. It also gave a remaining at 24 h, 2000 µM ([2]; isophoron, 80°C, Abbauzeit 24 Std., read-out: Wirkstoffgehalt) of 93%, a remaining at 5 min, 2000 µM [2, 8] of 92.3% and a remaining at 20 min, 2000 µM [2, 8] of 76.5%. It also gave a remaining at 1 h, 2000 µM [2, 8] of 52.8%, a remaining at 5 min, 2000 µM [2, 9] of 100% and a remaining at 0.5 h, 2000 µM [2, 9] of 96.7%. It also gave a remaining at 3.5 h, 2000 µM ([2]; n-methylpyrrolidone, N-Methylpyrrolidon (rein 0,05% H2O), 30°C, Abbauzeit 210 min, read-out: Wirkstoffgehalt) of 76.3%.
For `COC(=O)Nc1cccc(OC(=O)Nc2cccc(C)c2)c1` [Phenmedipham, 3-Methoxycarbonylaminophenyl-N-(3'-methyl-phenyl)-carbamat], the “Phenmedipham-Abbau Wirkstoffgehalt” value ([4]; formulation (g/l): 50 Phenmedipham, 150 Chloridazon, 200 Netzmittel, 50 Emulgiermittel, ad 1000 g Dimethylformamid, 50°C, 4 Wochen, 40320 min) was 4,8%, the “Phenmedipham-Abbau Wirkstoffgehalt” value ([4]; formulation (g/l): 50 Phenmedipham, 150 Chloridazon, 200 Netzmittel, 50 Emulgiermittel, ad 1000 g Dimethylformamid, Rt, 4 Wochen, 40320 min) was 79,5% and the “Phenmedipham-Abbau Wirkstoffgehalt” value ([4]; formulation (g/l): 167 Chloridazon, 83 Phenmedipham, 300 N-Methylpyrrolidon, 24 Morpholin, 100 Emulgiermittel, 326 Cyclohexanon-Destillationsrückstände (DE-PS 16 42 216, Beispiel 6/I), 50°C, 1 Stunde) was 30,8%. For the same compound, the “Phenmedipham-Abbau Wirkstoffgehalt” value ([4]; formulation with N-Methylpyrrolidon and Morpholin (DE-PS 16 42 216, Beispiel 6/I), 50°C, 2 Stunden) was 16,4%, the “Phenmedipham-Abbau Wirkstoffgehalt” value ([4]; formulation with N-Methylpyrrolidon and Morpholin (DE-PS 16 42 216, Beispiel 6/I), 50°C, 3 Stunden) was 12,8% and the “Phenmedipham-Abbau Wirkstoffgehalt” value ([4]; formulation with N-Methylpyrrolidon and Morpholin (DE-PS 16 42 216, Beispiel 6/I), 70°C, 1 Stunde) was 3,21%. The Wirkstoffgehalt ([4]; formulation with mixture of Dimethylformamid and Isophoron instead of Dimethylformamid alone, 4 Wochen, 50° C, 40320 min) was “ca. 60%”, the remaining at 24 h ([5]; 2-äthylhexancarbonsäureamid, 2-Äthylhexancarbonsäureamid (Nr. 9 aus Tabelle 4), 50°C) was 98.1% and the remaining at 24 h ([5]; 2-äthylhexancarbonsäureamid, 2-Äthylhexancarbonsäureamid (Nr. 9 aus Tabelle 4), 70°C) was 98%. The remaining at 24 h ([5]; dimethylformamid, 50°C) was 9.3%, the remaining at 24 h ([5]; isophoron, 50°C) was 99.3% and the remaining at 24 h ([5]; isophoron, 70°C) was 96.3%. The remaining at 24 h ([5]; n,n-dipropylbuttersäureamid, N,N-Dipropylbuttersäureamid (Nr. 7 aus Tabelle 4), 50°C) was 100%, the remaining at 24 h ([5]; n,n-dipropylbuttersäureamid, N,N-Dipropylbuttersäureamid (Nr. 7 aus Tabelle 4), 70°C) was 97.6% and the remaining at 24 h ([5]; n,n-diäthyl-3-methyl-benzolcarbonsäureamid, N,N-Diäthyl-3-methyl-benzolcarbonsäureamid (Nr. 11 Tabelle 4), 50°C) was 95.5%. It also gave a remaining at 24 h ([5]; n,n-diäthyl-3-methyl-benzolcarbonsäureamid, N,N-Diäthyl-3-methyl-benzolcarbonsäureamid (Nr. 11 Tabelle 4), 70°C) of 60%.
With `CCN(CC)C(=O)c1cccc(C)c1` [compound 11] the “Wasserlöslichkeit der Lösungsmittel (%)” value [1] was 2,2%.
In the case of `CCCN(CCC)C(=O)C(C)C` [compound 8], the “Wasserlöslichkeit der Lösungsmittel (%)” value [1] is reported as 1,6%.
